Results: patent publication US6525001B1, “Substituted pyrimidine and pyridine herbicides” (Mid-American Commercialization Corporation, priority 1997, dated 2003)

Tests used:
Experiment in all cases: Test B pre-/postemergence
Type in all cases: in vivo
Design in all cases: key: 0 is no effect; 10 is complete control
[1] = tested on: momingglory (Ipomoea hederacea)
Procedure, shortened: (§1)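 Compounds in a surfactant-containing, non-phytotoxic solvent blend are applied to freshly planted seed (preemergence) and, concurrently, to seedlings of 2 to 18 cm at 1–4 leaves (postemergence). Plants stay in the greenhouse twelve to sixteen days and are then scored visually from 0 (no effect) to 10 (complete control).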

[2] = tested on: broadleaf signalgrass (Brachiaria decumbens)
Procedure, shortened: as §1

[3] = tested on: velvetleaf (Abutilon theophrasti)
Procedure, shortened: as §1

[4] = tested on: sugar beet (Beta vulgaris)
Procedure, shortened: as §1

wild oat (Avena fatua) = tested on: wild oat (Avena fatua)
Procedure, shortened: as §1

corn (Zea mays) = tested on: corn (Zea mays)
Procedure, shortened: as §1

[5] = tested on: giant foxtail (Setaria faberii)
Procedure, shortened: as §1

[6] = tested on: bedstraw (Galium aparine)
Procedure, shortened: as §1

[7] = tested on: cocklebur (Xanthium strumarium)
Procedure, shortened: as §1

[8] = tested on: purple nutsedge (Cyperus rotundus)
Procedure, shortened: as §1

[9] = tested on: blackgrass (Alopecurus myosuroides)
Procedure, shortened: as §1

[10] = tested on: crabgrass (Digitaria sanguinalis)
Procedure, shortened: as §1

[11] = tested on: pigweed (Amaranthus retroflexus)
Procedure, shortened: as §1

[12] = tested on: wheat (Triticum aestivum)
Procedure, shortened: as §1

[13] = Rate 250 g/ha, Postemergence (so in the source)

CCc1cnc(-n2ccc(C(F)(F)F)n2)nc1Cc1cccc(C(F)(F)F)c1 [Compound 46]
Plant response rating, Morningglory ([1]; Rate 62 g/ha, Postemergence): 9 | Morningglory plant response rating ([1]; Rate 62 g/ha, Preemergence): 10 | Morningglory plant response rating ([1]; Rate 125 g/ha, Postemergence): 10 | Morningglory plant response rating ([1]; Rate 125 g/ha, Preemergence): 10 | Plant response rating, Morningglory ([1]; Rate 250 g/ha, Postemergence): 10 | Plant response rating, Morningglory [1, 13]: 10 | Plant response rating, B. signalgrass ([2]; Rate 62 g/ha, Postemergence): 3 | B. signalgrass plant response rating ([2]; Rate 62 g/ha, Preemergence): 9 | Plant response rating, B. signalgrass ([2]; Rate 125 g/ha, Postemergence): 4 | B. signalgrass plant response rating ([2]; Rate 125 g/ha, Preemergence): 9 | Plant response rating, B. signalgrass ([2]; Rate 250 g/ha, Postemergence): 5 | Plant response rating, B. signalgrass ([2]; Rate 250 g/ha, Postemergence as printed in head r139 (second section for compounds 26-50)): 9 | Plant response rating, Velvetleaf ([3]; Rate 62 g/ha, Postemergence): 9 | Velvetleaf plant response rating ([3]; Rate 62 g/ha, Preemergence): 10 | Velvetleaf plant response rating ([3]; Rate 125 g/ha, Postemergence): 9 | Plant response rating, Velvetleaf ([3]; Rate 125 g/ha, Preemergence): 10 | Plant response rating, Velvetleaf ([3]; Rate 250 g/ha, Postemergence): 9 | Plant response rating, Velvetleaf [3, 13]: 10 | Plant response rating, Sugarbeets ([4]; Rate 62 g/ha, Postemergence): 10 | Sugarbeets plant response rating ([4]; Rate 62 g/ha, Preemergence): 10 | Sugarbeets plant response rating ([4]; Rate 125 g/ha, Postemergence): 10 | Plant response rating, Sugarbeets ([4]; Rate 125 g/ha, Preemergence): 10 | Plant response rating, Sugarbeets ([4]; Rate 250 g/ha, Postemergence): 10 | Plant response rating, Sugarbeets [4, 13]: 10 | Wild oats plant response rating (wild oat (Avena fatua); Rate 62 g/ha, Postemergence): 3 | Wild oats plant response rating (wild oat (Avena fatua); Rate 62 g/ha, Preemergence): 6 | Wild oats plant response rating (wild oat (Avena fatua); Rate 125 g/ha, Postemergence): 4 | Plant response rating, Wild oats (wild oat (Avena fatua); Rate 125 g/ha, Preemergence): 8 | Plant response rating, Wild oats (wild oat (Avena fatua); Rate 250 g/ha, Postemergence): 4 | Plant response rating, Wild oats (wild oat (Avena fatua); [13]): 9 | Plant response rating, Corn (corn (Zea mays); Rate 62 g/ha, Postemergence): 2 | Corn plant response rating (corn (Zea mays); Rate 62 g/ha, Preemergence): 0 | Plant response rating, Corn (corn (Zea mays); Rate 125 g/ha, Postemergence): 2 | Corn plant response rating (corn (Zea mays); Rate 125 g/ha, Preemergence): 1 | Plant response rating, Corn (corn (Zea mays); Rate 250 g/ha, Postemergence): 3 | Plant response rating, Corn (corn (Zea mays); [13]): 3 | Plant response rating, Giant foxtail ([5]; Rate 62 g/ha, Postemergence): 3 | Giant foxtail plant response rating ([5]; Rate 62 g/ha, Preemergence): 9 | Giant foxtail plant response rating ([5]; Rate 125 g/ha, Postemergence): 4 | Giant foxtail plant response rating ([5]; Rate 125 g/ha, Preemergence): 9 | Plant response rating, Giant foxtail ([5]; Rate 250 g/ha, Postemergence): 7 | Plant response rating, Giant foxtail [5, 13]: 10 | Plant response rating, Bedstraw ([6]; Rate 62 g/ha, Postemergence): 8 | Bedstraw plant response rating ([6]; Rate 62 g/ha, Preemergence): 8 | Plant response rating, Bedstraw ([6]; Rate 125 g/ha, Postemergence): 9 | Bedstraw plant response rating ([6]; Rate 125 g/ha, Preemergence): 9 | Plant response rating, Bedstraw ([6]; Rate 250 g/ha, Postemergence): 10 | Plant response rating, Bedstraw [6, 13]: 10 | Plant response rating, Cocklebur ([7]; Rate 62 g/ha, Postemergence): 8 | Cocklebur plant response rating ([7]; Rate 62 g/ha, Preemergence): 10 | Plant response rating, Cocklebur ([7]; Rate 125 g/ha, Postemergence): 9 | Plant response rating, Cocklebur ([7]; Rate 250 g/ha, Postemergence): 9 | Plant response rating, Nutsedge ([8]; Rate 62 g/ha, Postemergence): 2 | Nutsedge plant response rating ([8]; Rate 125 g/ha, Preemergence): 0 | Plant response rating, Nutsedge [8, 13]: 0 | Plant response rating, Blackgrass ([9]; Rate 62 g/ha, Postemergence): 4 | Blackgrass plant response rating ([9]; Rate 62 g/ha, Preemergence): 8 | Plant response rating, Blackgrass ([9]; Rate 125 g/ha, Postemergence): 5 | Blackgrass plant response rating ([9]; Rate 125 g/ha, Preemergence): 8 | Plant response rating, Blackgrass ([9]; Rate 250 g/ha, Postemergence): 6 | Plant response rating, Blackgrass [9, 13]: 10 | Plant response rating, Crabgrass ([10]; Rate 62 g/ha, Postemergence): 6 | Crabgrass plant response rating ([10]; Rate 62 g/ha, Preemergence): 9 | Plant response rating, Crabgrass ([10]; Rate 125 g/ha, Postemergence): 6 | Crabgrass plant response rating ([10]; Rate 125 g/ha, Preemergence): 9 | Plant response rating, Crabgrass ([10]; Rate 250 g/ha, Postemergence): 8 | Plant response rating, Crabgrass [10, 13]: 10 | Plant response rating, Redroot pigweed ([11]; Rate 62 g/ha, Postemergence): 9 | Redroot pigweed plant response rating ([11]; Rate 62 g/ha, Preemergence): 10 | Redroot pigweed plant response rating ([11]; Rate 125 g/ha, Postemergence): 9 | Redroot pigweed plant response rating ([11]; Rate 125 g/ha, Preemergence): 10 | Plant response rating, Redroot pigweed ([11]; Rate 250 g/ha, Postemergence): 10 | Plant response rating, Redroot pigweed [11, 13]: 10 | Wheat plant response rating ([12]; Rate 62 g/ha, Postemergence): 3 | Wheat plant response rating ([12]; Rate 62 g/ha, Preemergence): 1 | Wheat plant response rating ([12]; Rate 125 g/ha, Postemergence): 3 | Plant response rating, Wheat ([12]; Rate 125 g/ha, Preemergence): 3 | Plant response rating, Wheat ([12]; Rate 250 g/ha, Postemergence): 4 | Plant response rating, Wheat [12, 13]: 5

Cc1cnc(-n2cnc(C(F)(F)F)n2)nc1Cn1ccc(C(F)(F)F)n1 [Compound 51]
Plant response rating, Morningglory ([1]; Rate 62 g/ha, Postemergence): 10 | Morningglory plant response rating ([1]; Rate 62 g/ha, Preemergence): 10 | Morningglory plant response rating ([1]; Rate 125 g/ha, Postemergence): 10 | Plant response rating, Morningglory ([1]; Rate 125 g/ha, Preemergence): 10 | Plant response rating, Morningglory ([1]; Rate 250 g/ha, Postemergence): 10 | Plant response rating, Morningglory ([1]; Rate 250 g/ha, Preemergence): 10 | Plant response rating, B. signalgrass ([2]; Rate 62 g/ha, Postemergence): 2 | B. signalgrass plant response rating ([2]; Rate 62 g/ha, Preemergence): 4 | B. signalgrass plant response rating ([2]; Rate 125 g/ha, Postemergence): 8 | Plant response rating, B. signalgrass ([2]; Rate 125 g/ha, Preemergence): 9 | Plant response rating, B. signalgrass ([2]; Rate 250 g/ha, Postemergence): 9 | Plant response rating, B. signalgrass ([2]; Rate 250 g/ha, Preemergence): 9 | Plant response rating, Velvetleaf ([3]; Rate 62 g/ha, Postemergence): 7 | Velvetleaf plant response rating ([3]; Rate 62 g/ha, Preemergence): 10 | Velvetleaf plant response rating ([3]; Rate 125 g/ha, Postemergence): 8 | Plant response rating, Velvetleaf ([3]; Rate 125 g/ha, Preemergence): 10 | Plant response rating, Velvetleaf ([3]; Rate 250 g/ha, Postemergence): 9 | Plant response rating, Velvetleaf ([3]; Rate 250 g/ha, Preemergence): 10 | Plant response rating, Sugarbeets ([4]; Rate 62 g/ha, Postemergence): 10 | Sugarbeets plant response rating ([4]; Rate 62 g/ha, Preemergence): 10 | Sugarbeets plant response rating ([4]; Rate 125 g/ha, Postemergence): 10 | Plant response rating, Sugarbeets ([4]; Rate 125 g/ha, Preemergence): 10 | Plant response rating, Sugarbeets ([4]; Rate 250 g/ha, Postemergence): 10 | Plant response rating, Sugarbeets ([4]; Rate 250 g/ha, Preemergence): 10 | Wild oats plant response rating (wild oat (Avena fatua); Rate 62 g/ha, Postemergence): 8 | Wild oats plant response rating (wild oat (Avena fatua); Rate 62 g/ha, Preemergence): 4 | Wild oats plant response rating (wild oat (Avena fatua); Rate 125 g/ha, Postemergence): 9 | Plant response rating, Wild oats (wild oat (Avena fatua); Rate 125 g/ha, Preemergence): 7 | Plant response rating, Wild oats (wild oat (Avena fatua); Rate 250 g/ha, Postemergence): 9 | Plant response rating, Wild oats (wild oat (Avena fatua); Rate 250 g/ha, Preemergence): 8 | Plant response rating, Corn (corn (Zea mays); Rate 62 g/ha, Postemergence): 7 | Corn plant response rating (corn (Zea mays); Rate 62 g/ha, Preemergence): 4 | Corn plant response rating (corn (Zea mays); Rate 125 g/ha, Postemergence): 8 | Plant response rating, Corn (corn (Zea mays); Rate 125 g/ha, Preemergence): 8 | Plant response rating, Corn (corn (Zea mays); Rate 250 g/ha, Postemergence): 9 | Plant response rating, Corn (corn (Zea mays); Rate 250 g/ha, Preemergence): 8 | Plant response rating, Giant foxtail ([5]; Rate 62 g/ha, Postemergence): 8 | Giant foxtail plant response rating ([5]; Rate 62 g/ha, Preemergence): 8 | Giant foxtail plant response rating ([5]; Rate 125 g/ha, Postemergence): 10 | Plant response rating, Giant foxtail ([5]; Rate 125 g/ha, Preemergence): 10 | Plant response rating, Giant foxtail ([5]; Rate 250 g/ha, Postemergence): 10 | Plant response rating, Giant foxtail ([5]; Rate 250 g/ha, Preemergence): 10 | Plant response rating, Bedstraw ([6]; Rate 62 g/ha, Postemergence): 9 | Bedstraw plant response rating ([6]; Rate 62 g/ha, Preemergence): 8 | Bedstraw plant response rating ([6]; Rate 125 g/ha, Postemergence): 10 | Plant response rating, Bedstraw ([6]; Rate 125 g/ha, Preemergence): 10 | Plant response rating, Bedstraw ([6]; Rate 250 g/ha, Postemergence): 10 | Plant response rating, Bedstraw ([6]; Rate 250 g/ha, Preemergence): 9 | Plant response rating, Cocklebur ([7]; Rate 62 g/ha, Postemergence): 6 | Cocklebur plant response rating ([7]; Rate 62 g/ha, Preemergence): 3 | Cocklebur plant response rating ([7]; Rate 125 g/ha, Postemergence): 9 | Plant response rating, Cocklebur ([7]; Rate 125 g/ha, Preemergence): 10 | Plant response rating, Cocklebur ([7]; Rate 250 g/ha, Postemergence): 9 | Plant response rating, Cocklebur ([7]; Rate 250 g/ha, Preemergence): 10 | Plant response rating, Nutsedge ([8]; Rate 62 g/ha, Postemergence): 7 | Nutsedge plant response rating ([8]; Rate 62 g/ha, Preemergence): 3 | Plant response rating, Nutsedge ([8]; Rate 125 g/ha, Preemergence): 9 | Plant response rating, Blackgrass ([9]; Rate 62 g/ha, Postemergence): 7 | Blackgrass plant response rating ([9]; Rate 62 g/ha, Preemergence): 7 | Blackgrass plant response rating ([9]; Rate 125 g/ha, Postemergence): 9 | Plant response rating, Blackgrass ([9]; Rate 125 g/ha, Preemergence): 9 | Plant response rating, Blackgrass ([9]; Rate 250 g/ha, Postemergence): 9 | Plant response rating, Blackgrass ([9]; Rate 250 g/ha, Preemergence): 10 | Plant response rating, Crabgrass ([10]; Rate 62 g/ha, Postemergence): 9 | Crabgrass plant response rating ([10]; Rate 62 g/ha, Preemergence): 10 | Crabgrass plant response rating ([10]; Rate 125 g/ha, Postemergence): 10 | Plant response rating, Crabgrass ([10]; Rate 125 g/ha, Preemergence): 10 | Plant response rating, Crabgrass ([10]; Rate 250 g/ha, Postemergence): 10 | Plant response rating, Crabgrass ([10]; Rate 250 g/ha, Preemergence): 10 | Plant response rating, Redroot pigweed ([11]; Rate 62 g/ha, Postemergence): 10 | Redroot pigweed plant response rating ([11]; Rate 62 g/ha, Preemergence): 10 | Redroot pigweed plant response rating ([11]; Rate 125 g/ha, Postemergence): 10 | Plant response rating, Redroot pigweed ([11]; Rate 125 g/ha, Preemergence): 10 | Plant response rating, Redroot pigweed ([11]; Rate 250 g/ha, Postemergence): 10 | Plant response rating, Redroot pigweed ([11]; Rate 250 g/ha, Preemergence): 10 | Wheat plant response rating ([12]; Rate 62 g/ha, Postemergence): 6 | Wheat plant response rating ([12]; Rate 62 g/ha, Preemergence): 0 | Wheat plant response rating ([12]; Rate 125 g/ha, Postemergence): 9 | Plant response rating, Wheat ([12]; Rate 125 g/ha, Preemergence): 3 | Plant response rating, Wheat ([12]; Rate 250 g/ha, Postemergence): 9 | Plant response rating, Wheat ([12]; Rate 250 g/ha, Preemergence): 5
